The values that follow come from patent publication US9125849B2, “TOMM34 peptides and vaccines including the same” (ONCOTHERAPY SCIENCE, INC., priority 2010, dated 2015).

Non-standard residues stand in square brackets, D forms with d. No end group written: not given here.

In experiment [1] the test system is COS7 cells transfected with both TOMM34 and HLA-A*0201. Description: Specific CTL activity against target cells expressing TOMM34 and HLA-A*0201. As to conditions: COS7 cells expressing both TOMM34 and HLA-A*0201; listed as TOMM34-A02-9-30. It is filed as cell-based, African green monkey. The source says: (§1) The cDNA encoding an open reading frame of target genes or HLA-A*0201 was amplified by PCR. The PCR-amplified product was cloned into expression vector. The plasmids were transfected into COS7, which is the target genes and HLA-A*0201-null cell line, using lipofectamine 2000 (Invitrogen) according to the manufacturer's recommended procedures. After 2 days from transfection, the transfected cells were harvested with versene (Invitrogen) and used as the stimulator cells (5×10^4 cells/well) for CTL activity assay.
(§2) The established CTL line raised against TOMM34-A02-9-30 (SEQ ID NO: 1) peptide was examined for the ability to recognize target cells that express TOMM34 and HLA-A*0201 molecule. COS7 cells transfected with both the full length of TOMM34 and HLA-A*0201 gene (a specific model for the target cells that express TOMM34 and HLA-A*0201 gene) were prepared as stimulator cells, and COS7 cells transfected with either full length of TOMM34 or HLA-A*0201 were used as the controls.

Experiment [2] relates to peptide-pulsed T2 cells. Description: In vitro CTL induction, IFN-gamma ELISPOT assay. The format is cell-based, human. The conditions noted are these: CTLs induced with peptide-pulsed DCs from HLA-A*0201 positive donor, vs target cells not pulsed with peptide. The source says:
Monocyte-derived dendritic cells (DCs) were used as antigen-presenting cells to induce cytotoxic T lymphocyte (CTL) responses against peptides presented on human leukocyte antigen (HLA). DCs were generated in vitro as described elsewhere (Nakahara S et al., Cancer Res 2003 Jul. 15, 63(14): 4112-8). Specifically, peripheral blood mononuclear cells isolated from a normal volunteer (HLA-A*0201 positive) by Ficoll-Paque plus (Pharmacia) solution were separated by adherence to a plastic tissue culture dish (Becton Dickinson) so as to enrich them as the monocyte fraction. The monocyte-enriched population was cultured in the presence of 1000 U/ml of granulocyte-macrophage colony-stimulating factor (R&D System) and 1000 U/ml of interleukin (IL)-4 (R&D System) in AIM-V Medium (Invitrogen) containing 2% heat-inactivated autologous serum (AS). After 7 days of culture, the cytokine-induced DCs were pulsed with 20 micro-g/ml of each of the synthesized peptides in the presence of 3 micro-g/ml of beta 2-microglobulin for 3 hr at 37 degrees C. in AIM-V Medium. The generated cells appeared to express DC-associated molecules, such as CD80, CD83, CD86 and HLA class II, on their cell surfaces (data not shown). These peptide-pulsed DCs were then inactivated by X ray-irradiated (20 Gy) and mixed at a 1:20 ratio with autologous CD8+ T cells, obtained by positive selection with CD8 Positive Isolation Kit (Dynal). These cultures were set up in 48-well plates (Corning); each well contained 1.5×10^4 peptide-pulsed DCs, 3×10^5 CD8+ T cells and 10 ng/ml of IL-7 (R&D System) in 0.5 ml of AIM-V/2% AS medium. Three days later, these cultures were supplemented with IL-2 (CHIRON) to a final concentration of 20 IU/ml. On day 7 and 14, the T cells were further stimulated with the autologous peptide-pulsed DCs. The DCs were prepared each time by the same way described above. CTL was tested against peptide-pulsed T2 cells after the 3rd round of peptide stimulation on day 21 (Tanaka H et al., Br J Cancer 2001 Jan. 5, 84(1): 94-9; Umano Y et al., Br J Cancer 2001 Apr. 20, 84(8): 1052-7; Uchida N et al., Clin Cancer Res 2004 Dec. 15, 10(24): 8577-86; Suda T et al., Cancer Sci 2006 May, 97(5): 411-9; Watanabe T et al., Cancer Sci 2005 August, 96(8): 498-506).
(§3) Peptide-pulsed T2 (1×10^4/well) was prepared as stimulator cells. Cultured cells in 48 wells were used as responder cells. IFN-gamma ELISPOT assay and IFN-gamma ELISA assay were performed under manufacture procedure.

Experiment [3] deals with COS7 cells transfected with either full length of TOMM34 or HLA-A*0201. In words: Specific CTL activity against control target cells. The format is cell-based, African green monkey. As to conditions: control COS7 cells expressing either HLA-A*0201 or TOMM34.
Excerpt: as §1, §2

The test system of experiment [4] is peptide-pulsed T2 cells. Description: CTL clone activity, IFN-gamma ELISA. The format is cell-based, human. As to conditions: CTL clone established by limiting dilution from the CTL line; target cells pulsed with peptide; listed as TOMM34-A02-9-30. The procedure: The dilutions were made to have 0.3, 1, and 3 CTLs/well in 96 round-bottomed micro titer plate (Nalge Nunc International). CTLs were cultured with 1×10^4 cells/well of 2 kinds of human B-lymphoblastoid cell lines, 30 ng/ml of anti-CD3 antibody, and 125 U/ml of IL-2 in a total of […] of AIM-V Medium containing 5% AS. 50 micro-1/well of IL-2 were added to the medium 10 days later so to reach a final concentration of 125 U/ml IL-2. CTL activity was tested on the 14th day, and CTL clones were expanded using the same method as described above (Uchida N et al., Clin Cancer Res 2004 Dec. 15, 10(24): 8577-86; Suda T et al., Cancer Sci 2006 May, 97(5): 411-9; Watanabe T et al., Cancer Sci 2005 August, 96(8): 498-506).
as §3
A general note: In an ELISA, binding on a coated surface is turned into a signal by an enzyme label.

In experiment [5] the test system is peptide-pulsed T2 cells. Description: CTL line activity, IFN-gamma ELISA. It is filed as cell-based, human. As to conditions: CTL line stimulated with peptide; target cells pulsed with peptide vs without peptide pulse. The procedure:
CTLs were expanded in culture using the method similar to the one described by Riddell et al. (Walter E A et al., N Engl J Med 1995 Oct. 19, 333(16): 1038-44; Riddell S R et al., Nat Med 1996 February, 2(2): 216-23). A total of 5×10^4 CTLs were suspended in 25 ml of AIM-V/5% AS medium with 2 kinds of human B-lymphoblastoid cell lines, inactivated by Mitomycin C, in the presence of 40 ng/ml of anti-CD3 monoclonal antibody (Pharmingen). One day after initiating the cultures, 120 IU/ml of IL-2 were added to the cultures. The cultures were fed with fresh AIM-V/5% AS medium containing 30 IU/ml of IL-2 on days 5, 8 and 11 (Tanaka H et al., Br J Cancer 2001 Jan. 5, 84(1): 94-9; Umano Y et al., Br J Cancer 2001 Apr. 20, 84(8): 1052-7; Uchida N et al., Clin Cancer Res 2004 Dec. 15, 10(24): 8577-86; Suda T et al., Cancer Sci 2006 May, 97(5): 411-9; Watanabe T et al., Cancer Sci 2005 August, 96(8): 498-506).
as §3

ALYGRALRV [SEQ ID NO: 1]: the “specific CTL activity of the CTL line” value in experiment [1] is given as “potent CTL activity”; in experiment [3], “no significant specific CTL activity was detected”. For the same substance, the “peptide specific CTL activity (IFN-gamma production) by IFN-gamma ELISPOT” value (from here on “peptide specific CTL activity”) in the experiment on peptide-pulsed T2 cells [2] is “potent IFN-gamma production”. The “IFN-gamma production of the CTL clone by IFN-gamma ELISA” value with peptide-pulsed T2 cells [4] is “potent IFN-gamma production”. Also, in the experiment on peptide-pulsed T2 cells [5], the “IFN-gamma production of the CTL line by IFN-gamma ELISA” value was “potent IFN-gamma production”.

In the case of “ALYGrALRVL (ALYG[code r]ALRVL; not fully specified; printed as ALYGrALRVL) [SEQ ID NO: 31]”, the “peptide specific CTL activity” value in the experiment with peptide-pulsed T2 cells [2] is given as “potent IFN-gamma production”.

Turning to “KLPSiPLVPV (KLPS[code i]PLVPV; not fully specified; printed as KLPSiPLVPV) [SEQ ID NO: 21]”, in the experiment with peptide-pulsed T2 cells [2] (listed as TOMM34-A02-10-143), the “peptide specific CTL activity” value was “specific IFN-gamma production was not observed”. Take LLCSNLESA [SEQ ID NO: 5]: the “peptide specific CTL activity” value in the experiment with peptide-pulsed T2 cells [2] is on record as “potent IFN-gamma production”. On the same count and under the same terms, next, “LLCSnLESAT (LLCS[code n]LESAT; not fully specified; printed as LLCSnLESAT) [SEQ ID NO: 32]”: “potent IFN-gamma production”.
